# Test results taken from patent publication US20250179049A1, “SALTS OF HETEROCYCLIC INHIBITORS OF MONOCARBOXYLATE TRANSPORTER 4 FOR THE TREATMENT OF DISEASE” (Vettore, LLC, priority 2022, published 2025).
# Read-outs that look alike come from different tables or passages of the source.
# Assays:
# [1] = Rat pharmacokinetics, oral gavage; format: in vivo, Sprague-Dawley rats; parameters: AUClast/D: unit not given here; settings: for MRT inf: read-out: MRTInf—obs; for Tmax: read-out: Tmax
# Experimental: Groups, Dosing, and Collection. […] Three rats per group were perorally administered 20, 60, or 200 mg Compound 1 free acid or 25, 75, or 250 mg in 0.5% methylcellulose in Saline for a final concentration of 2, 6, or 20 mg/mL Compound 1 free acid or 2.5, 7.5, or […]. Plasma was collected at 5 min, 15 min, 30 min, 1 hour, 2 hour, 4 hour, 6 hour, 8 hour, and 24 hour post dose via jugular vein.
# Stock and Dose Prep. Stock solutions were prepared by dissolving 2.47 mg of Compound 1 (free acid) in 2.470 mL DMSO with vortexing to obtain 1 mg/mL solution of Compound 1 (free acid), or 2.09 mg of Compound 1 (Tris salt) in […] DMSO with vortexing to obtain 1 mg/mL solution of Compound 1 (Tris salt). Dosing solutions were prepared by vortexing/sonicating the following solids in solvent:
# LC MS-MS Analysis. Liquid Chromatography with tandem mass spectrometry was used to determine plasma concentrations of Compound 1 Free Acid and Compound 1 Tris Salt in plasma samples collected at prescribed time points.
# Appropriate serial concentrations of working solutions were achieved by diluting stock solution of analyte with 50% acetonitrile in water solution. Five μL of working solutions (10, 20, 50, 100, 500, 1000, 5000, 8000, 10000 ng/mL) were added to 50 μL of the blank male SD Rat plasma to achieve calibration standards of 1˜1000 ng/ml (1, 2, 5, 10, 50, 100, 500, 800, 1000 ng/mL) in a total volume of 55 μL. Five quality control (QC) samples at 2 ng/mL, 5 ng/mL, 10 ng/mL, 50 ng/mL and 800 ng/mL for plasma were prepared independently of those used for the calibration curves. These QC samples were prepared on the day of analysis in the same way as calibration standards. 55 μL standards, 55 μL QC samples and 55 μL unknown samples (50 μL plasma/blood with 5 μL blank solution) were added to 200 μL of methanol containing internal standard (dexamethasone) mixture for precipitating protein respectively, and vortexed for 30 seconds. After centrifugation at 4° C. and 4000 rpm for 15 minutes. The supernatant was diluted with water with a ratio of 1:2. 2 μL of the supernatant was injected into the LC/MS/MS system for quantitative analysis.
# Instrumentation included HALO 90A C18 2.7 μm 2.1×50 mm HPLC column, a Prominence degasser DGU-20A5R(C), liquid chromatograph Shimadzu LC-30AD with communications bus module CBM-20A and Auto SIL-20AC HT; and an AB Sciex Triple Quad 5500 LC/MS/MS instrument.
# [2] = Dog pharmacokinetics, powder in capsule; format: in vivo, beagle dogs
# Experimental: Groups, Dosing, and Collection. The pharmacokinetics of the free acid and the tris salt of Compound 1 administered by oral capsules was assessed in dogs. Three male beagle dogs were administered a single dose of 3 mg/kg Compound 1 free acid on Day 1 of the study, and a single dose of 3 mg/kg Compound 1 tris salt on Day 8 of the study. Plasma was collected pre-dose, and at 0.5, 1, 2, 4, 8, 12 and 24 hours post-dose via puncture of peripheral veins.
# LC MS-MS Analysis. Liquid Chromatography with tandem mass spectrometry was used to determine plasma concentrations of Compound 1 Free Acid and Compound 1 Tris Salt in plasma samples collected at prescribed time points. Instrumentation included YMC-Triart C18, S-5 μm (50×2.1 mm) HPLC column, liquid chromatograph Shimadzu LC-30AD with communications bus module CBM-20A and Auto SIL-20AC HT; and a Triple Quad 5500 LC/MS/MS instrument. Tolbutamide was used as an internal standard.
# [3] = Sprague-Dawley, plasma, rat PO 20 mg/kg, female, mean
# [4] = Sprague-Dawley, plasma, rat PO 20 mg/kg, male, mean
# [5] = Sprague-Dawley, plasma, rat PO 60 mg/kg, female, mean
# [6] = Sprague-Dawley, plasma, rat PO 60 mg/kg, male, mean
# [7] = Sprague-Dawley, plasma, rat PO 200 mg/kg, female, mean
# [8] = Sprague-Dawley, plasma, rat PO 200 mg/kg, male, mean
# [9] = male, beagle, dog, plasma, po, 3 mg/kg, male beagle dogs, powder in capsule, mean
smiles,measurement,setting,value
"CC(C)(OCc1cc(-c2cccc(OC3CCC3)c2)n(-c2ccccc2N2CCC2)n1)C(=O)O [Compound 1, 2-((1-(2-(azetidin-1-yl)phenyl)-5-(3-cyclobutoxyphenyl)-1H-pyrazol-3-yl)methoxy)-2-methylpropanoic acid]",AUC(0-inf),[1]; [3],991 µg·h/mL
same,half-life,[1]; [3],420 min
same,MRT inf,[1]; [3],10 h
same,AUC(0-inf),[1]; [4],168 µg·h/mL
same,half-life,[1]; [4],196 min
same,MRT inf,[1]; [4],4.54 h
same,AUC(0-inf),[1]; [5],1770 µg·h/mL
same,half-life,[1]; [5],546 min
same,MRT inf,[1]; [5],13.6 h
same,AUC(0-inf),[1]; [6],447 µg·h/mL
same,half-life,[1]; [6],175 min
same,MRT inf,[1]; [6],5.33 h
same,AUC(0-inf),[1]; [7],3820 µg·h/mL
same,half-life,[1]; [7],624 min
same,MRT inf,[1]; [7],15.9 h
same,AUC(0-inf),[1]; [8],1110 µg·h/mL
same,half-life,[1]; [8],188 min
same,MRT inf,[1]; [8],6.01 h
same,AUC(0-t),"[1]; female, Sprague-Dawley, rat, plasma, po, 20 mg/kg, rat PO 20 mg/kg, female, mean, read-out: AUClast",885 µg·h/mL
same,Cmax,"[1]; female, Sprague-Dawley, rat, plasma, po, 20 mg/kg, rat PO 20 mg/kg, female, mean, read-out: Cmax",78.9 µg/mL
same,Tmax,"[1]; female, Sprague-Dawley, rat, plasma, po, 20 mg/kg, rat PO 20 mg/kg, female, mean",2.67 h
same,AUC(0-t),"[1]; female, Sprague-Dawley, rat, plasma, po, 20 mg/kg, rat, Female, PO/20 mg/kg, Mean ± SD, read-out: AUC0-24",885 µg·h/mL
same,Cmax,"[1]; female, Sprague-Dawley, rat, plasma, po, 20 mg/kg, rat, Female, PO/20 mg/kg, Mean ± SD, read-out: Cmax",78.8 µg/mL
same,AUC(0-t),"[1]; female, Sprague-Dawley, rat, plasma, po, 60 mg/kg, rat PO 60 mg/kg, female, mean, read-out: AUClast",1430 µg·h/mL
same,Cmax,"[1]; female, Sprague-Dawley, rat, plasma, po, 60 mg/kg, rat PO 60 mg/kg, female, mean, read-out: Cmax",113 µg/mL
same,Tmax,"[1]; female, Sprague-Dawley, rat, plasma, po, 60 mg/kg, rat PO 60 mg/kg, female, mean",4.67 h
same,AUC(0-t),"[1]; female, Sprague-Dawley, rat, plasma, po, 60 mg/kg, rat, Female, PO/60 mg/kg, Mean ± SD, read-out: AUC0-24",1430 µg·h/mL
same,Cmax,"[1]; female, Sprague-Dawley, rat, plasma, po, 60 mg/kg, rat, Female, PO/60 mg/kg, Mean ± SD, read-out: Cmax",113 µg/mL
same,Tmax,"[1]; female, Sprague-Dawley, rat, plasma, po, 60 mg/kg, rat, Female, PO/60 mg/kg, Mean ± SD",4.7 ± 2.3 h
same,AUC(0-t),"[1]; female, Sprague-Dawley, rat, plasma, po, 200 mg/kg, rat PO 200 mg/kg, female, mean, read-out: AUClast",2850 µg·h/mL
same,Cmax,"[1]; female, Sprague-Dawley, rat, plasma, po, 200 mg/kg, rat PO 200 mg/kg, female, mean, read-out: Cmax",206 µg/mL
same,Tmax,"[1]; female, Sprague-Dawley, rat, plasma, po, 200 mg/kg, rat PO 200 mg/kg, female, mean",4.67 h
same,AUC(0-t),"[1]; female, Sprague-Dawley, rat, plasma, po, 200 mg/kg, rat, Female, PO/200 mg/kg, Mean ± SD, read-out: AUC0-24",2850 µg·h/mL
same,Cmax,"[1]; female, Sprague-Dawley, rat, plasma, po, 200 mg/kg, rat, Female, PO/200 mg/kg, Mean ± SD, read-out: Cmax",206 µg/mL
same,Tmax,"[1]; female, Sprague-Dawley, rat, plasma, po, 200 mg/kg, rat, Female, PO/200 mg/kg, Mean ± SD",4.7 ± 1.1 h
same,AUC(0-t),"[1]; male, Sprague-Dawley, rat, plasma, po, 20 mg/kg, rat PO 20 mg/kg, male, mean, read-out: AUClast",167 µg·h/mL
same,Cmax,"[1]; male, Sprague-Dawley, rat, plasma, po, 20 mg/kg, rat PO 20 mg/kg, male, mean, read-out: Cmax",30.6 µg/mL
same,Tmax,"[1]; male, Sprague-Dawley, rat, plasma, po, 20 mg/kg, rat PO 20 mg/kg, male, mean",1 h
same,AUC(0-t),"[1]; male, Sprague-Dawley, rat, plasma, po, 20 mg/kg, rat, Male, PO/20 mg/kg, Mean ± SD, read-out: AUC0-24",167 µg·h/mL
same,Cmax,"[1]; male, Sprague-Dawley, rat, plasma, po, 20 mg/kg, rat, Male, PO/20 mg/kg, Mean ± SD, read-out: Cmax",30.6 µg/mL
same,Tmax,"[1]; male, Sprague-Dawley, rat, plasma, po, 20 mg/kg, rat, Male, PO/20 mg/kg, Mean ± SD",1 h
same,AUC(0-t),"[1]; male, Sprague-Dawley, rat, plasma, po, 60 mg/kg, rat PO 60 mg/kg, male, mean, read-out: AUClast",445 µg·h/mL
same,Cmax,"[1]; male, Sprague-Dawley, rat, plasma, po, 60 mg/kg, rat PO 60 mg/kg, male, mean, read-out: Cmax",56.5 µg/mL
same,Tmax,"[1]; male, Sprague-Dawley, rat, plasma, po, 60 mg/kg, rat PO 60 mg/kg, male, mean",2.67 h
same,AUC(0-t),"[1]; male, Sprague-Dawley, rat, plasma, po, 60 mg/kg, rat, Male, PO/60 mg/kg, Mean ± SD, read-out: AUC0-24",445 µg·h/mL
same,Cmax,"[1]; male, Sprague-Dawley, rat, plasma, po, 60 mg/kg, rat, Male, PO/60 mg/kg, Mean ± SD, read-out: Cmax",56.5 µg/mL
same,Tmax,"[1]; male, Sprague-Dawley, rat, plasma, po, 60 mg/kg, rat, Male, PO/60 mg/kg, Mean ± SD",2.7 ± 1.2 h
same,AUC(0-t),"[1]; male, Sprague-Dawley, rat, plasma, po, 200 mg/kg, rat PO 200 mg/kg, male, mean, read-out: AUClast",1100 µg·h/mL
same,Cmax,"[1]; male, Sprague-Dawley, rat, plasma, po, 200 mg/kg, rat PO 200 mg/kg, male, mean, read-out: Cmax",115 µg/mL
same,Tmax,"[1]; male, Sprague-Dawley, rat, plasma, po, 200 mg/kg, rat PO 200 mg/kg, male, mean",4 h
same,AUC(0-t),"[1]; male, Sprague-Dawley, rat, plasma, po, 200 mg/kg, rat, Male, PO/200 mg/kg, Mean ± SD, read-out: AUC0-24",1100 µg·h/mL
same,Cmax,"[1]; male, Sprague-Dawley, rat, plasma, po, 200 mg/kg, rat, Male, PO/200 mg/kg, Mean ± SD, read-out: Cmax",115 µg/mL
same,Tmax,"[1]; male, Sprague-Dawley, rat, plasma, po, 200 mg/kg, rat, Male, PO/200 mg/kg, Mean ± SD",4 ± 2 h
same,AUClast/D,"[1]; rat PO 20 mg/kg, female, mean",44231
same,AUC—% Extrap—obs,"[1]; rat PO 20 mg/kg, female, mean",9.9%
same,Cmax,"[1]; rat PO 20 mg/kg, female, mean, listed as Free Acid, 20 mg/kg",78.833 µg/mL
same,AUC—% Extrap—obs,"[1]; rat PO 20 mg/kg, male, mean",0.61%
same,AUClast/D,"[1]; rat PO 60 mg/kg, female, mean",23759
same,AUC—% Extrap—obs,"[1]; rat PO 60 mg/kg, female, mean",16.7%
same,AUClast/D,"[1]; rat PO 60 mg/kg, male, mean",7419
same,AUC—% Extrap—obs,"[1]; rat PO 60 mg/kg, male, mean",0.477%
same,AUClast/D,"[1]; rat PO 200 mg/kg, female, mean",14265
same,AUC—% Extrap—obs,"[1]; rat PO 200 mg/kg, female, mean",22.1%
same,AUClast/D,"[1]; rat PO 200 mg/kg, male, mean",5525
same,AUC—% Extrap—obs,"[1]; rat PO 200 mg/kg, male, mean",0.704%
same,Clinical symptoms,"[1]; rats, single oral gavage dose",No abnormal clinical symptoms were observed
same,Clinical symptoms,"[2]; dogs, single 3 mg/kg oral capsule dose",No abnormal clinical symptoms were observed
same,ClF,"[2]; male beagle dogs, powder in capsule, 3 mg/kg, mean, listed as Free Acid",2505
same,MRT last,[2]; [9],5.39 h
same,half-life,[2]; [9],380 min
